What was measured:
elongin BC = target: T1, elongin BC (Homo sapiens, UniProt Q15369+Q15370); assay: Isothermal titration calorimetry (ITC); format: binding
T1 construct: made in house; host or cells: E. coli BL21 (DE3), pCDFDuet-1
Protocol: In order to determine the crucial peptide sequence for elongin BC binding by isothemal titration caloritetry (ITC), recombinant proteins of elongin B and elongin C were prepared as follows. […] For purification, cell pellets were lysed by sonication in buffer A (20 mM Tris-HCl, pH 8.0, 0.5 M NaCl, 10 mM imidazole), and the soluble fraction was loaded onto Ni-NTA resin (Qiagen, Venlo, Netherlands) and eluted with buffer B (20 mM Tris-HCl (pH 8.0), 0.5 M NaCl, 250 mM imidazole). Eluted proteins were then loaded onto a Mono Q column followed by a Superdex 75 10/300 GL column (GE Healthcare, Chicago, IL, USA). For the ITC experiments, the elongin BC solution was exchanged with buffer C (20 mM HEPES-NaOH (pH 8.0), 150 mM NaCl) by using size-exclusion chromatography. Assays to assess the binding of peptides to elongin BC were performed by using a MicroCal iTC200 isothermal titration calorimeter (GE Healthcare, Chicago, IL, USA). […] The concentration of elongin BC was adjusted to a final one of 35 μM and injected into the sample cell (204 μL). One mM peptide was titrated into the protein solution as 40 consecutive 1.0-μL aliquots at 120-s intervals at 25 °C. The first injection volume was 0.4 μL, and the observed thermal peak was excluded from the data analyses. Duplicate experiments were performed independently. […] The KD values were calculated from duplicate thermograms.

[1] = system: skin-derived precursors (SKPs); assay: Immunocytochemistry with anti-Neurofilament-H (NFH) antibody; format: cell-based, rat (neonate Wistar); settings: immunocytochemistry, peptides at 1 to 5 μM; mean ± SEM; vs VHL(157–171): p < 0.01 for VHL(157–168), p < 0.005 for TAT
Protocol: (§1) Rodent skin-derived precursor cells (SKPs), which can differentiate to neurons, were used. SKPs were previously isolated from the back dermis of neonate Wistar rats by the authors. These cells were cultured in growth medium composed of DMEM/F12 (1:1; Gibco, Grand Island, NY, USA) containing 2% B27 supplement (Gibco), 20 ng/mL epidermal growth factor (EGF; Upstate Biotechnology, Lake Placid, NY, USA), and 40 ng/mL bFGF (PeproTech EC Ltd., Rocky Hill, NJ, USA) in a humidified incubator at 37 °C with 5% CO2. The floating clusters of cultured cells were centrifuged and dissociated into a single-cell suspension by use of a Pasteur pipette with a flame-polished tip. These single cells were then re-suspended into at a concentration of 50,000 cells/mL for passage or experiments.
(§2) For neuronal differentiation, cells were dissociated into a single-cell suspension by use of a Pasteur pipette and re-suspended into a concentration of 50,000 cells/mL in DMEM/F12 without serum, neurotrophic factors or growth factors. Then, the cells were cultured on poly-L-lysine-coated dishes or cover glasses, and the synthesized peptides at concentrations from 1 to 5 μM were added to the culture medium and delivered into the cells. Three days or more later, the cells were used for morphological, immunocytochemical, immunohistochemical, electrophysiological and immunoprecipitation studies, as well as for Western blot analysis.
Cultured cells were fixed with 4% paraformaldehyde in PBS (Phosphate buffered saline) for 10 min at room temperature. Cells were incubated for 1 h at room temperature with primary antibodies. Antibodies against anti-MAP2 antibody (Sigma-Aldrich, St. Louis, MO, USA), anti-Neurofilment-H (NFH) antibody (Sigma-Aldrich), anti-NeuN antibody (Merk Millipore, Billerica, MA, USA), anti-GFAP antibody (DAKO, Santa Clara, CA, USA), anti-tyrosine hydroxylase (TH) antibody (Merk Millipore, Billerica, MA, USA), anti-choline acetyl transferase (ChAT) antibody (Abbiotec, San Diego, CA, USA), anti-glutamic acid decaboxylase (GAD) antibody (Enzo Life Sciences, Flamingdale, NY, USA), and anti-rhodopsin antibody (Santa Cruz, San Diego, CA, USA) were used. […] Nuclear counterstaining was done with DAPI (Molecular Probes, Eugene, OR, USA) or TO-PRO-3 (Molecular Probes), and observations were made with a fluorescence microscope system (FV300, Olympus, Tokyo, Japan). We counted the number of immuno-positive cells with a given antibody in 4 to 6 random non-overlapping visual fields (50–200 cells per field) in each experiment. […] The degree of positivity was expressed as the rate of immuno-positive cells to the total number of nuclei stained with DAP1 or TO-PRO-3.

rat brain = assay: Immunohistochemistry (NeuN) of transplanted peptide-treated cells in rat brain; format: in vivo, rat (Wistar); settings: 1 × 10^5 peptide-treated cells transplanted into rat brain, 6 weeks; mean ± SEM; vs VHL(157–171): p < 0.01 for VHL(157–168), p < 0.005 for TAT
Protocol: To evaluate neuronal differentiation of transplanted cells in rat brains, immunohistochemical study was performed as described previously. Before grafting, cells were preincubated with red fluorescence PKH26PCL (Sigma, St. Louis, MO, USA). […] Rats were anesthetized with isoflurane before surgery, and 1 × 10^5 cells were transplanted into rat brain. The rats were perfused with periodate-lysine-paraformaldehyde solution 6 weeks after the transplantation. Their brains were subsequently dissected and postfixed in the same medium for 2 h, cryopreserved in 30% sucrose for 12 h, and then embedded in Tissue Tek OCT compound (Sakura, Tokyo, Japan). Cryostat coronal sections of 14-μm thickness were prepared for immunohistochemistry. For immunostaining, sections were incubated with primary antibody, anti-NeuN antibody, and then incubated in secondary antibody, FITC-conjugated anti-rabbit IgG. Counterstaining was done with DAPI. In immohistochemistry, observations were made with a confocal immunofluorescence microscope (FV300, Olympus, Tokyo, Japan).
Wistar rats (Clea, Tokyo, Japan) were used in all experiments and housed in a temperature controlled room on a 12-h day/night cycle with free access to food and water. All animal experimental procedures were approved by the Institutional Animal Use Committee of Yokohama City University (ID 153, 1 April 2015) and were in accordance with National Institutes of Health guidelines for care and use of laboratory animals.

[2] = system: skin-derived precursors (SKPs); assay: Neurite outgrowth / morphological evaluation of neuronal differentiation; format: cell-based, rat (neonate Wistar); settings: peptides at 1 to 5 μM; for Neurite Outgrowth Activity: Figure 2A, rates of cells having neurites, VHL157–168 vs VHL(157–171) p < 0.005
Protocol: as §1, §2
Neurite outgrowth with length exceeding the diameter of the neuronal soma is often assessed as a morphological index of neuronal differentiation. After a single-cell suspension was made by pipetting, the cells were cultured in DMEN/F12 medium alone at 37 °C in a 5% CO2 incubator. Thereafter, neurite outgrowth was evaluated with the following 4 levels: +++, for above 50% of the cells showing neurite outgrowth; ++, for 20–50% with neurite outgrowth; +, for 5–19% having neurite outgrowth; and −, for below 5% of the cells with neurite outgrowth.

STAT3 = assay: Western blotting of STAT3 before and after peptide treatment; format: cell-based, rat; settings: Western blot, Figure 5B, p < 0.01
[3] = system: skin-derived precursors (SKPs); assay: Western blot analysis of NFH protein; format: cell-based, rat (neonate Wistar); settings: three days after treatment, Figure 3B, peptides at 1 to 5 μM, less than VHL(157–171): VHL(157–168) p < 0.01, TAT p < 0.001
Protocol: as §1, §2
Cultured cells were washed 3 times in cold PBS and then scraped into ice-cold PBS. After incubation on ice for 10 min, the cells were lysed with lysis buffer and centrifuged, after which the supernatants were collected. Each sample was separated by SDS-PAGE under reducing conditions and transferred electrophoretically to nitrocellulose filters. Non-specific binding of antibody was blocked by incubation with 5% donkey serum for 1 h. Western blots were probed with anti-MAP2 antibody, anti-NFH antibody, anti-ChAT antibody, anti-GAD antibody, anti-rhodopsin antibody, anti-TH antibody, and anti-elongin C antibody (Santa Cruz, San Diego, CA, USA) followed by horseradish peroxidase-conjugated secondary antibodies. Protein bands were detected by using a chemical luminescence detection system (ECL Plus Western Blotting Reagent Pack, Amersham, Hemel Hempstead, UK). Images were analyzed with LAS-1000 (Fujifilm, Tokyo, Japan), and the density of the bands was determined by using Image Gauge software (Fujifilm).

[4] = system: skin-derived precursors (SKPs); assay: Whole-cell patch-clamp electrophysiology; format: cell-based, rat (neonate Wistar); settings: five days after peptide addition at 3 μM, holding potential −80 mV, steps of 20 mV from −100 to 100 mV, VHL(157–168) vs VHL(157–171) p < 0.01
Protocol: as §1, §2
To record fast sodium and delayed rectifier potassium currents, we prepared extracellular and intracellular solutions as described previously. […] For recordings and data analysis we used CEZ-2300 (Nihon Kohden, Tokyo, Japan) and pCLAMP 6.0 software (Axon Instruments, Burlingame, CA, USA). Linear components of leak and capacitive currents were reduced by analogue circuitry and then canceled by the P/N method. Signals were sampled every 20 μs, and currents were filtered at 5 kHz. Data were additionally processed with Origin 5.0 (Microcal, Northhampton, MA, USA).

JAK2 = assay: Western blotting of JAK2 before and after peptide treatment; format: cell-based, rat; settings: Western blot, Figure 5B, p < 0.01

T1 sequence (Q15369 17-112): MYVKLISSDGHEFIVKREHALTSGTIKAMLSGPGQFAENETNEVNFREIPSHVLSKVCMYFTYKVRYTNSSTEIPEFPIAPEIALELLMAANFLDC
T1 sequence (Q15370 whole entry partner): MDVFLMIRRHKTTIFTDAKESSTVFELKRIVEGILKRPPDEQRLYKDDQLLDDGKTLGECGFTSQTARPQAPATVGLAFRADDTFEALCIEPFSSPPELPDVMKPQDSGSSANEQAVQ

TLKERCLQVVRS [VHL157–168, VHL peptide without TAT, for ITC, synthesized by CS Bio Co]
ΔS (elongin BC; 25 °C, 20 mM HEPES-NaOH (pH 8.0), 150 mM NaCl, mean ± S.D. of two independent replicates): −8.54 ± 0.74 cal/mol/deg

YARAAARQARA [TAT, modified TAT protein transduction domain peptide, reference compound]
Percentage of NFH-positive cells [1]: 6.9 ± 1.5%
Positive rates of NeuN (rat brain): 3.2 ± 0.8%
Neurite Outgrowth Activity [2]: scarcely did
Morphological change ([2]; phase-contrast microscopy, Figure 1E): no morphological change
STAT3 degradation (STAT3): Bands for JAK2 and STAT3 were found for pre-treated cells or TAT-treated cells more than post-treated cells
NFH protein amount / band [3]: a faint band
Voltage-gated outward K+ and inward Na+ currents [4]: no current was elicited
JAK2 degradation (JAK2): Bands for JAK2 and STAT3 were found for pre-treated cells or TAT-treated cells more than post-treated cells

YARAAARQARAKERCLQVVRS [VHL(159–171), pVHL fragment conjugated with PTD]
Elongin BC binding affinity (elongin BC; two residues deleted from the N-terminus, p < 0.0001): complete loss of elongin BC binding affinity
Neurite Outgrowth Activity [2]: scarcely did

YARAAARQARATLKERCLQVVRS [VHL(157–168), BC-box motif plus two amino acids, conjugated with PTD]
Percentage of NFH-positive cells [1]: 10.1 ± 2.2%
Positive rates of NeuN (rat brain): 9.2 ± 1.8%
Neurite Outgrowth Activity [2]: significantly weaker neurite outgrowth activity than VHL(157–171)
NFH protein amount / band [3]: a less distinct band for NFH
Voltage-gated outward K+ and inward Na+ currents [4]: both significantly smaller outward potassium and inward Na^+ currents

Reference: paper PMC5855688, “BC-Box Motif-Mediated Neuronal Differentiation of Somatic Stem Cells” (International Journal of Molecular Sciences, 2018)
